Reference: paper PMC8662641, “Site-Specific Labeling of Endogenous Proteins Using CoLDR Chemistry” (Journal of the American Chemical Society, 2021)

Assays:
[1] = biological target: T1, BTK-1h (Homo sapiens, UniProt Q06187); test: High-throughput screening with 1h-labeled BTK; assay type: binding
T1 construct: The BTK kinase domain was diluted to 2 μM in the buffer, and 2 μM 1h was added; made in house
Protocol: The collection was composed of BTK binding compounds obtained in our previous luminescence screen[37] (Data set S2). […] The resulting BTK-1h (50 μL) was added to the inhibitors.

[2] = biological target: BTK (Homo sapiens, UniProt Q06187); parameters: BTK kinase domain was expressed and purified as previously reported; made in house; method as in Reddi et al., J. Am. Chem. Soc. 2021, 143 (13), 4979–4992; details: ref Reddi et al., J. Am. Chem. Soc. 2021, 143 (13), 4979–4992; cited from earlier work
[3] = Dataset S2A, 200 μM compound, BTK-1h, 32 °C, 10 min

BTK, sequence (Q06187 402-655 limits assumed): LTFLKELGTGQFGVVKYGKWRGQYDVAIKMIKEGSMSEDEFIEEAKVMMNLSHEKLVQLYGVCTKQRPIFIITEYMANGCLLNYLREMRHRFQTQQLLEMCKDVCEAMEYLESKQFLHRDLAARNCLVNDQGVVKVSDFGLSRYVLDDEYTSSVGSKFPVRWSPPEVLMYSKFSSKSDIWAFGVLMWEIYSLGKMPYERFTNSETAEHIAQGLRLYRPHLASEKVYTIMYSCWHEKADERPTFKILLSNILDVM
T1 sequence (Q06187 402-655): as the sequence (Q06187 402-655 limits assumed) above

Row | SMILES | FI (650)/FI (620) [1, 3] | FI (BTK-1h)/FI (BTK-1h+Inhibitor) at 620 nm [1, 3] | FI (650)/FI (620) ([1]; Dataset S2C, BTK-1h with inhibitor) | BTK Inhibition reported in luminescence assay* [2]
1 | O=C(NCCCNc1nc(Nc2cccc(NC(=O)N3CCCC3)c2)ncc1I)c1cccs1 [PCM-0095061-002] | 1.86 | 1.055 | – | 60
2 | CC(C)N1CCN(Cc2cnc(-c3cc(-c4cccc5[nH]ccc45)cc4[nH]ncc34)o2)CC1 [PCM-0213407-002] | 0.9167 | 1.042 | – | 51.7
3 | CS(=O)(=O)O.O=C(Nc1cccc(Cl)c1)Nc1ncc(CCNc2ncnc3ccsc23)s1 [PCM-0094983-002] | 1.066 | 1.085 | – | 73.1
4 | Cn1cc(-c2[nH]c3cc(NC(=O)[C@H](N)C4CCCCC4)cc4c3c2C=NNC4=O)cn1 [PCM-0095372-002] | 2.04 | 1.441 | – | 111
5 | COc1cccc2c1C(=O)c1c(O)c3c(c(O)c1C2=O)C[C@@](O)(C(=O)CO)C[C@@H]3O[C@H]1C[C@H](N)[C@H](O[C@@H]2CCCCO2)[C@H](C)O1 [PCM-0214749-001] | 0.7711 | 1.012 | – | 53.7
6 | Cl.Cl.Fc1ccc(C(c2ccc(F)cc2)N2CCN(C/C=C/c3ccccc3)CC2)cc1 [PCM-0065210-003] | 0.8526 | 1.036 | – | 87.2
7 | CN(CC(=O)N(Cc1ccc(C2CCCCC2)cc1)c1ccc(C(=O)O)cc1)S(=O)(=O)c1c(F)c(F)c(F)c(F)c1F [PCM-0095763-002] | 1.026 | 1.04 | – | 68.7
8 | CN[C@H]1C(=O)N[C@@H]2Cc3ccc(cc3)Oc3cc4cc(c3O[C@@H]3O[C@H](C(=O)O)[C@@H](O)[C@H](O)[C@H]3NC(=O)CCCCCCCCC(C)C)Oc3ccc(cc3Cl)[C@@H](O)[C@@H]3NC(=O)[C@H](NC(=O)[C@@H]4NC(=O)[C@@H](NC2=O)c2cc(cc(O)c2Cl)Oc2cc1ccc2O)c1ccc(O)c(c1)-c1c(O[C@H]2O[C@H](CO)[C@@H](O)[C@H](O)[C@@H]2O)cc(O)cc1[C@@H](C(=O)NCCCN(C)C)NC3=O [PCM-0215113-001] | 0.7724 | 1.097 | – | 73.2
9 | Cl.Cl.Cl.O[C@@H](COc1cccc2ncccc12)CN1CCN(C2c3ccccc3[C@@H]3[C@H](c4ccccc42)C3(F)F)CC1 (stereo partly shown) [PCM-0095161-003] | 0.9335 | 1.115 | – | 102.7
10 | Cc1cc(C)nc(NS(=O)(=O)c2ccc(NC(=S)NC(=O)COc3ccc(Br)cc3Cl)cc2)n1 [PCM-0095801-002] | 0.8921 | 1.024 | – | 59.5
11 | CN(C)C/C=C/C(=O)Nc1cc2c(Nc3ccc(F)c(Cl)c3)ncnc2cc1O[C@H]1CCOC1 [PCM-0094907-003] | 0.9254 | 1.084 | – | 84.8
12 | Cc1nc(Nc2n[nH]c3c2CN(C(=O)N[C@H](CN(C)C)c2ccccc2)C3(C)C)c2sccc2n1 [PCM-0095819-002] | 0.9908 | 1.0756 | – | 72.4
13 | O=C(Nc1c[nH]nc1-c1nc2ccc(CN3CCOCC3)cc2[nH]1)NC1CC1 [PCM-0094942-002, AT9283] | 2.2858 | 1.798 | 1.798 | 93.8
14 | C[n+]1cc2c3c(ccc2c2ccc4cc5c(cc4c21)OCO5)OCO3.[Cl-] [PCM-0065605-002] | 1.399 | 1.003 | – | 75.7
15 | Cc1ccc(C(=O)Nc2ccc(CN3CCN(C)CC3)c(C(F)(F)F)c2)cc1C#Cc1cnc2cccnn12 [PCM-0095174-003] | 1.022 | 1.075 | – | 92.4
16 | Nc1cccc(-c2cc3c(Oc4cccc(O)c4)ncnc3[nH]2)c1 [PCM-0095147-003] | 1.616 | 1.107 | – | 82.1
17 | COC[C@H]1C[C@@H](c2ncc(-c3ccc4c(c3)COc3cc5c(ccc6[nH]c([C@@H]7CC[C@H](C)N7C(=O)[C@@H](NC(=O)OC)C(C)C)nc65)cc3-4)[nH]2)N(C(=O)[C@H](NC(=O)OC)c2ccccc2)C1 [PCM-0214920-001] | 0.8577 | 1.025 | – | 56
18 | COc1cc2nccc(Oc3ccc(NC(=O)Nc4cc(C)on4)c(Cl)c3)c2cc1OC [PCM-0094927-002] | 1.123 | 1.05 | – | 84.1

More lines, main results first:

Row | FI (650)/FI (620) [1, 3] | FI (BTK-1h)/FI (BTK-1h+Inhibitor) at 620 nm [1, 3] | FI (650)/FI (620) ([1]; Dataset S2C, BTK-1h with inhibitor) | SMILES | BTK Inhibition reported in luminescence assay* [2]
19 | 1.364 | 1.2233 | – | C1=C/COCc2cc(ccc2OCCN2CCCC2)Nc2nccc(n2)-c2cccc(c2)COC/1 [PCM-0215268-001] | 71.7
20 | 1.5271 | 1.051 | – | COc1cc(-c2oc3cc(O)cc(O)c3c(=O)c2O)ccc1O [PCM-0216402-001] | 73.4
21 | 1.609 | 0.9946 | – | COc1ccc2[nH]cc(/C=C3\C(=O)Nc4ccc(NC(=O)CCN5CCCCC5)cc43)c2c1 [PCM-0216653-001] | 51.7
22 | 0.6133 | 1.029 | – | COCCCc1sc(-c2ccccc2)nc1C(=O)Nc1ccccc1-c1nc2cc(CN3CCCC3)cnc2s1.Cl [PCM-0215812-001] | 57.9
23 | 1.794 | 1.194 | – | CN1c2ccccc2C(=O)Nc2cnc(Nc3ccc(N4CCC(O)CC4)cc3)nc21 [PCM-0215745-001] | 93.8
24 | 1.111 | 1.004 | – | C=CC(=O)N1CCN(C(=O)CNc2cc(I)c(Cl)cc2O)CC1 [PCM-0215367-001] | 84.9
25 | 0.8983 | 1.05 | – | COC(=O)N[C@H](C(=O)N1CC2(CC2)C[C@H]1c1ncc(-c2ccc3c(c2)C(F)(F)c2cc(-c4ccc5nc([C@@H]6[C@H]7CC[C@H](C7)N6C(=O)[C@@H](NC(=O)OC)C(C)C)[nH]c5c4)ccc2-3)[nH]1)C(C)C [PCM-0215396-001] | 74.9
26 | 1.18 | 1.008 | – | Cc1cc(N=Nc2ccc(S(=O)(=O)Nc3ccccn3)cc2)c(N)cc1O [PCM-0215414-001] | 76.4
27 | 1.093 | 1.086 | – | NC(=O)c1cnc2[nH]ccc2c1NC1[C@@H]2CC3C[C@H]1CC(O)(C3)C2 (stereo partly shown) [PCM-0215550-001] | 94.5
28 | 2.134 | 0.9621 | – | COc1cc(/C=C/C(=O)CC(=O)/C=C/c2ccc(O)cc2)ccc1O [PCM-0216521-001] | 110.4
